Values after ≈ are worked out from the molar mass of the structure shown. “Also recorded” adds a separate entry of the source. Read-outs that look alike come from different tables or passages of the source.
What was measured:
[1] = tested on: Tubulin free of microtubule-associated proteins; test: Tubulin Assembly (microtubule assembly; protein concentration of the supernatant); type: biochemical, bovine; conditions: for Tubulin Assembly ED50: concentration which reduces the supernatant protein concentration by 50%, tubulin 1 mg/ml, 37° C., 15 minutes, PEM buffer pH 6.9; for Tubulin Assembly ED50 /ED50 Taxol: relative to control sample of taxol, less than 1 = greater activity than taxol
Description: This example illustrates the results of biological tests on the compounds of this invention and certain "controls" with respect to tubulin binding and the effect of these compounds on B16 melanoma. The following procedures were employed:
Tubulin Preparation and Assembly. The tubulin testing was done exactly as described by Himes (Georg, G. I., et al., "Synthesis of Biologically Active Taxol Analogs with Modified Phenylisoserine Side Chains", J. Med. Chem. Vol. 35: 4230, (1992)), incorporated herein by reference. Tubulin free of microtubule-associated proteins was purified from bovine brain as described in Algaier, J.; Himes, R. H., "The Effect of Dimethyl Sulfoxide on the Kinetics of Tubulin Assembly" Biochim. Biophys. Acta, Vol 954, pp 235-243, 1988. The assembly reaction was done at 37° C. in PEM buffer ([…], pH 6.9, 1 mM EGTA, and 1 mM MgSO4) at a protein concentration of 1 mg/ml (10 μM) in the presence of taxol or taxol analogs and 0.5 mM GTP. The reaction was monitored by the increase in the apparent absorbance at 350 nm.
Taxol has been included in Table 1 for reference. […] A number less than 1 in these columns indicates greater activity than taxol. A number greater than 1 in these columns indicates lower activity than taxol. These tests have been used and relied upon by researchers in this field to determine the potential efficacy of taxol and/or a taxol analog for the treatment of cancer.
^b Tubulin at 1 mg/ml was incubated with various concentrations of th
compounds at 37° C. for 15 minutes in 0.5 ml of PEM buffer (0.1M
Pipes, 1 mM EGTA, 1 mM MgSO4, pH 6.9). Samples were centrifuged and
the protein concentration on the supernatant was determined.
^d The concentration in μg/ml which reduces the supernatant protei

tubulin = conditions: Taxotere compared with taxol; taxol per Schiff et al.; Kingston review; cited from earlier work
B16 melanoma cells = test: B16 Melanoma Cell Proliferation; type: cell-based; conditions: for B16 Proliferation ED50 /ED50 Taxol: relative to control sample of taxol, less than 1 = greater activity than taxol; for IC50: Mus musculus, read-out: B16 Proliferation ED50
Procedure: The following procedures were employed:
B16 Melanoma Cell Proliferation. Cells were seeded in 24-well plates at 7.5×10^4 cells/well and grown in Delbecco's modified minimal essential medium (MEM) containing 10% bovine calf serum at 37° C. for 24 hours in a 97% humidified atmosphere of 5.5% CO2, the medium was then replaced with fresh medium containing taxol or its derivatives and dissolved in DMSO in concentrations ranging from […] to 1×10^-7 M for taxol and other derivatives. The final concentration of DMSO in the cell medium was 0.5% or less. […] After 40 hours, the cells were released by trypsinization and counted in a Coulter counter.
A number less than 1 in these columns indicates greater activity than taxol. A number greater than 1 in these columns indicates lower activity than taxol.

cell = conditions: literature on taxol and taxol analogs (Kingston); cited from earlier work
[2] = tested on: macrophage-like J774.2 cells; conditions: mouse macrophage-like J774.2 cells; Taxotere vs taxol; cited from earlier work
[3] = cited from earlier work
[4] = tested on: taxol-resistant tumor cells; conditions: Taxotere vs taxol; cited from earlier work
[5] = tested on: P388 murine leukemia cells; conditions: Taxotere vs taxol; cited from earlier work
[6] = B16, concentration which reduces the number of cells by 50 [%] compared to a control, about 40 h at 37° C., highest concentration used 1000 ng/ml

SMILES	Tubulin Assembly ED50 [1]	Tubulin Assembly ED50 /ED50 Taxol [1]	B16 Proliferation ED50 /ED50 Taxol (B16 melanoma cells)	IC50 (B16 melanoma cells; B16, 40 h)	also measured
CC(=O)O[C@H]1C(=O)[C@@]2(C)[C@H]([C@H](OC(=O)c3ccccc3)[C@]3(O)C[C@H](OC(=O)[C@H](O)[C@@H](NC(=O)c4ccccc4)c4ccccc4)C(C)=C1C3(C)C)[C@]1(OC(C)=O)CO[C@@H]1C[C@@H]2O [Compound 1, taxol]	1.08 µg/mL	1.26	0.95	–	ED50 for taxol in the assembly assay ([1]; control sample, denominator of ED50/ED50 Taxol, 15 min): 0.854 µg/mL; activity as a promoter of tubulin polymerization / tubulin binding, in words (tubulin): significant tubulin binding activity; cytotoxicity / activity, in words (cell): significant cytotoxicity
CC(=O)O[C@@]12CO[C@@H]1C[C@H](O)[C@@]1(C)C(=O)[C@H](O)C3=C(C)[C@@H](OC(=O)[C@H](O)[C@@H](NC(=O)OC(C)(C)C)c4ccccc4)C[C@@](O)([C@@H](OC(=O)c4ccccc4)[C@H]21)C3(C)C [Compound 2]	–	–	–	–	potency as an inhibitor of replication, times more potent than taxol [2]: 1.5 times; activity as a promoter of tubulin polymerization / tubulin binding, in words (tubulin): slightly more active as a promoter of tubulin polymerization; also recorded: enhanced in vitro tubulin binding activity; water solubility, in words [3]: improved water solubility; potency in taxol-resistant tumor cells, vs taxol [4]: at least five-fold more potent; potency as an inhibitor of replication, times more potent than taxol [5]: 1.5 times
CC(=O)O[C@H]1C(=O)[C@]2(C)[C@@H](O[C@@H]3OC[C@@H](O)[C@H](O)[C@H]3O)C[C@H]3OC[C@@]3(OC(C)=O)[C@H]2[C@H](OC(=O)c2ccccc2)[C@]2(O)C[C@H](OC(=O)[C@H](O)[C@@H](NC(=O)c3ccccc3)c3ccccc3)C(C)=C1C2(C)C [Compound 3, 7-xylosyl taxol]	0.82 µg/mL	0.80	40.8	0.925 µg/mL (≈ 0.938 µM)	–
CC(=O)O[C@H]1C(=O)[C@]2(C)[C@@H](O[C@@H]3OCC(O)OC3O)C[C@H]3OC[C@@]3(OC(C)=O)[C@H]2[C@H](OC(=O)c2ccccc2)[C@]2(O)C[C@H](OC(=O)[C@H](O)[C@@H](NC(=O)c3ccccc3)c3ccccc3)C(C)=C1C2(C)C (stereo partly shown) [Compound 4]	0.48 µg/mL	0.57	2.2	–	tubulin binding / in vitro tubulin assembly, in words ([1]; compared to taxol or to precursors): comparable to results for taxol; cytotoxicity, in words (B16 melanoma cells; B16 melanoma, compared to taxol or to precursors): comparable to results for taxol; IC50 (B16 melanoma cells; [6]): 0.05 µg/mL (≈ 0.0514 µM)
CC(=O)O[C@@]12CO[C@@H]1C[C@H](O[C@@H]1OC[C@@H](O)[C@H](O)[C@H]1O)[C@@]1(C)C(=O)[C@H](O)C3=C(C)[C@@H](OC(=O)[C@H](O)[C@@H](NC(=O)c4ccccc4)c4ccccc4)C[C@@](O)([C@@H](OC(=O)c4ccccc4)[C@H]21)C3(C)C [Compound 5, 10-deacetyl-7-xylosyl taxol]	0.72 µg/mL	0.70	> 44	> 1 µg/mL	–
CC(=O)O[C@@]12CO[C@@H]1C[C@H](O[C@@H]1OCC(O)OC1O)[C@@]1(C)C(=O)[C@H](O)C3=C(C)[C@@H](OC(=O)[C@H](O)[C@@H](NC(=O)c4ccccc4)c4ccccc4)C[C@@](O)([C@@H](OC(=O)c4ccccc4)[C@H]21)C3(C)C (stereo partly shown) [Compound 6]	0.68 µg/mL	0.80	15.1	0.432 µg/mL (≈ 0.465 µM)	–
C/C=C(\C)C(=O)N[C@@H](c1ccccc1)[C@@H](O)C(=O)O[C@H]1C[C@@]2(O)[C@@H](OC(=O)c3ccccc3)[C@@H]3[C@]4(OC(C)=O)CO[C@@H]4C[C@H](O[C@@H]4OC[C@@H](O)[C@H](O)[C@H]4O)[C@@]3(C)C(=O)[C@H](O)C(=C1C)C2(C)C [Compound 9, 10-deacetyl-7-xylosyl cephalomannine]	1.10 µg/mL	1.10	33.3	0.755 µg/mL (≈ 0.819 µM)	–
C/C=C(\C)C(=O)N[C@@H](c1ccccc1)[C@@H](O)C(=O)O[C@H]1C[C@@]2(O)[C@@H](OC(=O)c3ccccc3)[C@@H]3[C@]4(OC(C)=O)CO[C@@H]4C[C@H](O[C@@H]4OCC(O)OC4O)[C@@]3(C)C(=O)[C@H](O)C(=C1C)C2(C)C (stereo partly shown) [Compound 10]	0.82 µg/mL	0.96	14.1	0.317 µg/mL (≈ 0.349 µM)	–
CCCCCC(=O)N[C@@H](c1ccccc1)[C@@H](O)C(=O)O[C@H]1C[C@@]2(O)[C@@H](OC(=O)c3ccccc3)[C@@H]3[C@]4(OC(C)=O)CO[C@@H]4C[C@H](O[C@@H]4OC[C@@H](O)[C@H](O)[C@H]4O)[C@@]3(C)C(=O)[C@H](O)C(=C1C)C2(C)C [Compound 13, 10-deacetyl-7-xylosyl taxol C]	0.58 µg/mL	0.60	> 44	> 1 µg/mL	–
CCCCCC(=O)N[C@@H](c1ccccc1)[C@@H](O)C(=O)O[C@H]1C[C@@]2(O)[C@@H](OC(=O)c3ccccc3)[C@@H]3[C@]4(OC(C)=O)CO[C@@H]4C[C@H](O[C@@H]4OCC(O)OC4O)[C@@]3(C)C(=O)[C@H](O)C(=C1C)C2(C)C (stereo partly shown) [Compound 14]	1.45 µg/mL	1.70	8.28	–	IC50 (B16 melanoma cells; [6]): 0.186 µg/mL (≈ 0.201 µM)
CC(=O)O[C@@]12CO[C@@H]1C[C@H](O[C@@H](CO)OCCO)[C@@]1(C)C(=O)[C@H](O)C3=C(C)[C@@H](OC(=O)[C@H](O)[C@@H](NC(=O)c4ccccc4)c4ccccc4)C[C@@](O)([C@@H](OC(=O)c4ccccc4)[C@H]21)C3(C)C [Compound 15]	1.42 µg/mL	1.66	14.6	–	IC50 (B16 melanoma cells; [6]): 0.328 µg/mL (≈ 0.358 µM)

— patent US5356928A, “Cytotoxic agents” (Hauser Chemical Research, Inc., priority 1993, dated 1994)
